As usually defined, the Kd is the concentration at which binding is half-saturated. Lower therefore signals tighter binding.

We go through two compounds from paper PMC5641094, “A peptide antagonist of Prep1-p160 interaction improves ceramide-induced insulin resistance in skeletal muscle cells” (Oncotarget, 2017).

For assay [1], the system named is Prep1 and p160 protein levels in L6 cells. Put plainly: Western blot of Prep1 and p160 protein levels in L6 cells. The class given is cell-based, rat. The settings on record: for increase of Prep1 and p160 protein levels: 18h. Here is the method:
Figure 1 Effect of ceramides dose-response and time-course on Prep1 and p160 protein levels L6 skeletal muscle cells were treated with different concentration of C2cer (10μM and 100μM for 18h) (A) and for different time (10μM for 6h and 18h) (B). Protein lysates were analyzed by Western blot using antibodies for Prep1, p160 and for the beta-actin, as a loading control. Blots were detected by ECL and autoradiography. The autoradiographs are representative of four independent experiments. Asterisks denote statistically significant differences (*p<0.05; **p<0.01).
Figure 2 Effect of ceramides on Prep1 and p160 mRNA expression and of Prep1-p160 coprecipitation L6 cells were treated with C2cer (10μM) for 18h and Prep1 (A) or p160 (B) mRNA levels were analyzed by real-time RT-PCR analysis. Data were normalized by the amount of GAPDH mRNA, used as internal control. Bars represent the mean ± SD of three independent experiments, each performed in triplicate. (C) L6 cells were treated with cycloheximide (CHX) at 40μg/mL concentration for 18h and the lysates were analyzed by Western blot with anti-p160 and beta-actin. The autoradiograph shown is representative of three different experiments and subjected to densitometric analysis. (D) Protein lysates from L6 cells treated with C2cer as indicated, were immunoprecipitated with Prep1 antibody and immunoblotted with p160 or Prep1 antibodies. The autoradiograph shown is representative of three different experiments and subjected to densitometric analysis. Asterisks denote statistically significant differences (*p<0.05; **p<0.01).
Figure 3 Design and in vitro effects of Prep1(54-72) peptide on Prep1/p160 association (A) Binding curves of Prep1(59-72) and Prep1(54-72) peptides to p160_20-160 by ELISA-like assays. Biotinylated peptides at several concentrations were added in triplicate to a 96-well plate coated with p160_20-160 (0.1μM). Experiments were performed at least twice and the average results fitted using GraphPad Prism. […] (B) Competition binding experiments. His6-tagged-p160_20-160 at 0.25μM was incubated with Prep1(59-72) and Prep1(54-72) at concentrations ranging between 0.001÷10μM and added to a 96-well plate coated with Prep1_45-155 (0.10μM). Results are the average of three independent experiments. (C) L6 cells were incubated with increasing concentrations of the fluorescein-conjugated peptide (FITC-Prep1(54-72)) and peptide uptake was detected by FACS analysis of fluorescein-labeled cells. Bars represent the mean ± SD of four independent experiments. (D) L6 muscle cells incubated with Prep1(54-72) were stimulated with C2cer (10μM) for 18h. Protein lysates were immunoprecipitated with Prep1 antibodies and analyzed by Western blot using antibodies for p160 or for Prep1. (E) An aliquot of the lysate was used to measure protein expression of Prep1 and p160 and the beta-actin used as loading control. The blots were detected by ECL and autoradiography. The autoradiograph is representative of three independent experiments. Asterisks denote statistically significant differences (*p<0.05; **p<0.01).
L6 rat skeletal muscle cells (ATCC, Manassas, VA, USA) were cultured in DMEM supplemented with 10% FBS and 1% penicillin/streptomycin solution at 37°C in a humidified 95% air and 5% CO2 atmosphere (all vol./vol.). […]
Total cell lysates were obtained and separated by SDS-PAGE. […] The protein concentrations in the cell lysates were measured using a Bio-Rad DC (detergent compatible) assay. […]
Background: A western blot detects proteins with antibodies after separation by electrophoresis.

The target of a further assay is T1, p160_20-160 (Homo sapiens, UniProt Q9BQG0).
T1 construct: were added to a plate coated with p160_20-160 (0.1μM); His6; made in house
T1 sequence (Q9BQG0 20-160): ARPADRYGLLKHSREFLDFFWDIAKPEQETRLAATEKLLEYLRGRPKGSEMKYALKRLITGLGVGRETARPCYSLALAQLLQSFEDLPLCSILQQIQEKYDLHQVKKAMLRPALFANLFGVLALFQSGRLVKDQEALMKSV
Briefly: ELISA-like direct binding of biotinylated Prep1 peptides to coated p160_20-160. The settings on record: N-terminally biotinylated peptide variants; plate coated with p160_20-160 (0.1μM); streptavidin-HRP; one-site binding fit; triplicate, performed at least twice. The text has this:
To address the significance of the association between Prep1 and p160 mediated by C2cer, we generated a synthetic inhibitor of the Prep1/p160 interaction. […] The synthetic peptide covering such stretch of residues was therefore chosen to generate a potential inhibitor. […] Thus, we designed and chemically synthesized a peptide spanning residues 59-72, hereafter Prep1(59-72), which comprises the predicted α-helix and a short loop at the N-terminus (Supplementary Figure 2A, upper panel). […]
Figure 3 Design and in vitro effects of Prep1(54-72) peptide on Prep1/p160 association (A) Binding curves of Prep1(59-72) and Prep1(54-72) peptides to p160_20-160 by ELISA-like assays. […] (C) L6 cells were incubated with increasing concentrations of the fluorescein-conjugated peptide (FITC-Prep1(54-72)) and peptide uptake was detected by FACS analysis of fluorescein-labeled cells. […] Protein lysates were immunoprecipitated with Prep1 antibodies and analyzed by Western blot using antibodies for p160 or for Prep1. […] The blots were detected by ECL and autoradiography. […]
ELISA experiments were performed using an integrated platform for High-Throughput Screening (Hamilton Robotics, Bonaduz, CH) comprising a fully equipped Starlet 8 channel liquid handler, a robotic arm, a washer and a multi-wavelength plate reader. […] The binding was detected by anti-His HRP-conjugated antibody. […]
(An ELISA detects its analyte on a solid surface through an enzyme-linked reagent.)

Setting [2] is: C2cer 10μM 18h, incubated with Prep1(54-72).

For the compound `CCCCCCCCCCCCC/C=C/[C@@H](O)[C@H](CO)NC(C)=O` [C2cer, D-erythro-Sphingosine, N-Acetyl-, reference compound], the “increase of Prep1 and p160 protein levels” value in assay [1] (C2cer 10μM) stood at 50%; in assay [1] (C2cer 100μM), 90%.

“Ac-KQAIYRHPLFPLLALLFEK-NH2 [Prep1(54-72)]” returned a Kd on p160_20-160 of 180 nM. For the same compound, in assay [1] (setting [2]), the “decrease of ceramide-induced p160 levels” value is recorded as 25% and the “effect on ceramide-induced Prep1 levels” value is “did not modify”.
